Measurements published in PMC6009933, “Discovery of novel dual inhibitors of receptor tyrosine kinases EGFR and IGF-1R” (Journal of Enzyme Inhibition and Medicinal Chemistry, 2017).

Legend:
[1] = biological target: T1, IGF-1R (Homo sapiens, UniProt P08069); assay: Receptor tyrosine kinase inhibition, 33P-ATP FlashPlate assay (IGF-1R); format: biochemical; details: for Ki: recombinant GST fusion kinase, substrate Poly(Glu,Tyr)4:1, Ki from IC50, Km ATP 2.52 µM
T1 construct: GST; made in house; host or cells: Sf9 insect cells (baculovirus)
Method: (§1) The protein kinases were expressed by means of the baculovirus expression system in Sf9 insect cells as human recombinant GST fusion proteins and purified by affinity chromatography using GSH-agarose. The kinase identity was confirmed by mass spectrometry using LC-ESI-MS/MS technique.
(§2) The measuring of protein kinase activity was performed in 96-well FlashPlates^TM from Perkin Elmer in a 50 µL reaction volume. The reaction mixture consisted of 20 µL of assay buffer solution, 5 µL of ATP solution in water, 5 µL of used test compound in a 10% DMSO solution and finally a premixture of each 10 µL of used substrate and enzyme solutions. The assay buffer solution contained 70 mM of HEPES-NAOH pH 7.5, each 3 mM of magnesium chloride and manganese(II) chloride, 3 µM of sodium orthovanadate, 1.2 mM of DTT, 50 µg/mL of PEG20000 and finally 15 µM of [γ-^33P]-ATP making approximately 7 × 10^5 cpm per well.
(§3) The final kinase concentration has been 10 ng/50 µL for EGFR and IGF-1R. The used substrate was Poly(Glu,Tyr)4:1 in a concentration of 125 ng/50 µL.
(§4) The reaction mixtures were incubated at 30 °C for 60 min. The reaction was stopped with 50 µL of a 2% (v/v) solution of phosphoric acid. Then, the plates were aspirated and washed twice with 200 µL of water or 0.9% solution of sodium chloride. The incorporation of ^33Pi was determined with a microplate scintillation counter. Ten different inhibitor concentrations were measured in a range of 3 nM to 100 µM. The residual activity (%) and the IC50 values were finally calculated. From the IC50 values, the affinity constants Ki were determined using the equation: IC50 = 1/2 [Etotal] + Ki× (1 + [S]/Km) following a competitive inhibitor binding mode[18]. The used Km values for ATP have been measured with 1.3 µM for EGFR and with 2.52 µM for IGF-1R (Table 1).

[2] = biological target: T2, EGFR (Homo sapiens, UniProt P00533); assay: Receptor tyrosine kinase inhibition, 33P-ATP FlashPlate assay (EGFR); format: biochemical; details: recombinant GST fusion kinase, substrate Poly(Glu,Tyr)4:1, Ki from IC50, Km ATP 1.3 µM
T2 construct: GST; made in house; host or cells: Sf9 insect cells (baculovirus)
Method: as §1, §2, §3, §4

[3] = test system: IGF-1R; set-up: method as in PMID 23639757; details: cited from earlier work

T2 sequence (P00533 25-1210): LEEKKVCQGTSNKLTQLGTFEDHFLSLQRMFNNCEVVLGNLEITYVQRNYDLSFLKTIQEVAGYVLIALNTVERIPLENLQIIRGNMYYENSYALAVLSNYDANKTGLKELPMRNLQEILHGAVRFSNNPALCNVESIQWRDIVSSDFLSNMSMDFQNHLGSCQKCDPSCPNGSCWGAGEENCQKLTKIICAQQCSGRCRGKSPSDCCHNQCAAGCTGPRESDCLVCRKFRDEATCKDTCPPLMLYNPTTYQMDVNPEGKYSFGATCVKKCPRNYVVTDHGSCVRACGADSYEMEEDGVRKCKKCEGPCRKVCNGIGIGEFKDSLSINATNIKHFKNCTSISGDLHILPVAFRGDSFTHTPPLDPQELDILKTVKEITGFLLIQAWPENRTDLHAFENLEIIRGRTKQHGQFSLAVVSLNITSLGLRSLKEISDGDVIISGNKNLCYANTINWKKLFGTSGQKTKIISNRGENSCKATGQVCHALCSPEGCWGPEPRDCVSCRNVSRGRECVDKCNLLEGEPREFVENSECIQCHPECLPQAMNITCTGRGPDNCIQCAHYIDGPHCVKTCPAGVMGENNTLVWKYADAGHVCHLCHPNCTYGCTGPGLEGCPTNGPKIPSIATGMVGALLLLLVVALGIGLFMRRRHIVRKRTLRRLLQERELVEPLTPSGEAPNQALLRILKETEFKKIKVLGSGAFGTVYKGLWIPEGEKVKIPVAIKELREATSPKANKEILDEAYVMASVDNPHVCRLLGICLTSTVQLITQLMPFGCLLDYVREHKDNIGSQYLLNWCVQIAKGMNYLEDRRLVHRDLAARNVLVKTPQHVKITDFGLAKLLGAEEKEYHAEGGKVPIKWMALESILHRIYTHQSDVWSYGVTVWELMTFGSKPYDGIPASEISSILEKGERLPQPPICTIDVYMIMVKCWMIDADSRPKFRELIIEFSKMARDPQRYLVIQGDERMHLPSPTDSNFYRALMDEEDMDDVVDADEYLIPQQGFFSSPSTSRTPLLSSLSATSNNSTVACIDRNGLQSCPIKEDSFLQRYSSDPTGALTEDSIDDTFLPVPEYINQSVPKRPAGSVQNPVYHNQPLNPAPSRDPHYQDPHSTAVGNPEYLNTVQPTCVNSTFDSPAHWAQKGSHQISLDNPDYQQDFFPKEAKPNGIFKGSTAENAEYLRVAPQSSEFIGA
T1 sequence (P08069 31-1367): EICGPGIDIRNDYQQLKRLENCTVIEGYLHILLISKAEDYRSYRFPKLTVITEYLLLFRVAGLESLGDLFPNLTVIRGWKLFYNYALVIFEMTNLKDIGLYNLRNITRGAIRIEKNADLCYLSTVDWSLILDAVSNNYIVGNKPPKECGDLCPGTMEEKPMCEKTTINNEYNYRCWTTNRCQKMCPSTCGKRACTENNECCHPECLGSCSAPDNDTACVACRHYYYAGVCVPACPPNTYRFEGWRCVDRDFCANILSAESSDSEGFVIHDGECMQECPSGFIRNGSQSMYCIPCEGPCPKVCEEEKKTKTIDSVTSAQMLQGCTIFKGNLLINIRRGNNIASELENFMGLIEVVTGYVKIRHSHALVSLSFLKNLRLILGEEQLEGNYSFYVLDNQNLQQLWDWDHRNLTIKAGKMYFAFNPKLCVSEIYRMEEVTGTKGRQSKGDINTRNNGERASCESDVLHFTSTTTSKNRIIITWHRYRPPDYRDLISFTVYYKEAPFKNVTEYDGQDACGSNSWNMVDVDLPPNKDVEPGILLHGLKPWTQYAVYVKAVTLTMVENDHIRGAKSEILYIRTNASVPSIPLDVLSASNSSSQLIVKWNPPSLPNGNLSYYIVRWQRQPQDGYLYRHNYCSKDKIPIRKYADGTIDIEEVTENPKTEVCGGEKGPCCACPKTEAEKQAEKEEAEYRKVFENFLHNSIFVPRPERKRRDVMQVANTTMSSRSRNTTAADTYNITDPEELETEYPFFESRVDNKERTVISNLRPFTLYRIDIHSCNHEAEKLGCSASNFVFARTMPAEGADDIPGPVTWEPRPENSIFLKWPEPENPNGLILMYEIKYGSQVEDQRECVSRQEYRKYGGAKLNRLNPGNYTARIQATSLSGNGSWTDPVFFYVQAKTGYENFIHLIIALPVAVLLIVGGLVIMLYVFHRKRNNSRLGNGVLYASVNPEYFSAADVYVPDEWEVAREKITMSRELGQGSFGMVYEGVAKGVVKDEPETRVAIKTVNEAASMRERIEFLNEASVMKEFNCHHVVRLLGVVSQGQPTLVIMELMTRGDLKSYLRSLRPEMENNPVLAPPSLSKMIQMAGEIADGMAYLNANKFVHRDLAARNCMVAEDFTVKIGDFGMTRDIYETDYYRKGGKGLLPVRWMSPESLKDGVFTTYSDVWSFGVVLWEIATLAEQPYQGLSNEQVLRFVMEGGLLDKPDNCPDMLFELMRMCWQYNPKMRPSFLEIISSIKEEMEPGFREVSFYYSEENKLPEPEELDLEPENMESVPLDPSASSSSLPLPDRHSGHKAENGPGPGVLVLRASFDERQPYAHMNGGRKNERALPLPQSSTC

Row | SMILES | Ki [1] [nM] | Ki [2] [nM] | further results
1 | COc1cccc(CNc2ccnc3[nH]c4ccc(Br)cc4c23)c1 [Compound 5a, N^4–(3-Methoxybenzyl)-6-bromo-9H-pyrido[2,3-b]indole-4-amine] | 9840 ± 238 | 344 ± 24 | –
2 | C#Cc1cccc(Nc2ncnc3cc(OCCOC)c(OCCOC)cc23)c1 [erlotinib] | – | – | activity toward IGF-1R (erlotinib) [3]: no activity
3 | Clc1ccc(CNc2ccnc3[nH]c4ccc(Br)cc4c23)cc1 [Compound 5f, N^4–(4-Chlorobenzyl)-6-bromo-9H-pyrido[2,3-b]indole-4-amine] | 2290 ± 43 | – | Ki values EGFR [2]: lost
4 | COc1cccc(CNc2ccnc3[nH]c4ccc(C(=O)O)cc4c23)c1 [Compound 7] | 2360 ± 132 | 140 ± 28 | affinity towards IGF-1R relative to corresponding 6-cyano compound 6a ([1]; fold comparison of Ki with 6a): almost tenfold lower
5 | Brc1cccc(CNc2ccnc3[nH]c4ccc(Br)cc4c23)c1 [Compound 5c, N^4–(3-Bromobenzyl)-6-bromo-9H-pyrido[2,3-b]indole-4-amine] | 2960 ± 37 | 255 ± 18 | –
6 | Clc1cccc(CNc2ccnc3[nH]c4ccc(Br)cc4c23)c1 [Compound 5b, N^4–(3-Chlorobenzyl)-6-bromo-9H-pyrido[2,3-b]indole-4-amine] | 3470 ± 71 | 361 ± 35 | –

Further compounds by falling Ki [1], results first:

Row | Ki [1] [nM] | Ki [2] [nM] | SMILES | further results
7 | 2230 ± 22 | 1170 ± 57 | COc1ccc(CNc2ccnc3[nH]c4ccc(Br)cc4c23)cc1 [Compound 5e, N^4–(4-Methoxybenzyl)-6-bromo-9H-pyrido[2,3-b]indole-4-amine] | –
8 | 884 ± 25 | 448 ± 72 | Brc1ccc(CNc2ccnc3[nH]c4ccc(Br)cc4c23)cc1 [Compound 5g, N^4–(4-Bromobenzyl)-6-bromo-9H-pyrido[2,3-b]indole-4-amine] | –
9 | 697 ± 15 | 279 ± 91 | Cc1ccc(CNc2ccnc3[nH]c4ccc(Br)cc4c23)cc1 [Compound 5h, N^4–(4-Methylbenzyl)-6-bromo-9H-pyrido[2,3-b]indole-4-amine] | –
10 | 537 ± 22 | 101 ± 11 | Nc1cccc(CNc2ccnc3[nH]c4ccc(Br)cc4c23)c1 [Compound 5d, N^4–(3-Aminobenzyl)-6-bromo-9H-pyrido[2,3-b]indole-4-amine] | –
11 | 390 ± 16 | 160 ± 15 | Cc1ccc(CNc2ccnc3[nH]c4ccc(C#N)cc4c23)cc1 [Compound 6c, 4–(4-Methylbenzyl)amino-9H-pyrido[2,3-b]indole-6-carbonitrile] | –
12 | 288 ± 26 | 72 ± 17 | COc1cccc(CNc2ccnc3[nH]c4ccc(C#N)cc4c23)c1 [Compound 6a, 4–(3-Methoxybenzyl)amino-9H-pyrido[2,3-b]indole-6-carbonitrile] | affinity towards IGF-1R relative to corresponding 6-bromo compound 5a ([1]; fold comparison of Ki with 5a): more than thirtyfold higher
13 | 269 ± 22 | 158 ± 26 | COc1ccc(CNc2ccnc3[nH]c4ccc(C#N)cc4c23)cc1 [Compound 6b, 4–(4-Methoxybenzyl)amino-9H-pyrido[2,3-b]indole-6-carbonitrile] | –
